Measured values reported in patent US9526786B2, “Thermostabilization of proteins” (The Trustee of Columbia University in the City of New York, priority 2007, dated 2016).
Where a chain is given by its changes, count along the chain named. “Also recorded” adds a separate entry of the source. Where two headings read alike, the source gives them in different places.

How the values were obtained:
CocE [1] = molecular target: T1, CocE (Rhodococcus sp., UniProt Q9L9D7); type: biochemical, Rhodococcus sp. MB 1
T1 construct: 6xHis (C); made in house; host or cells: E. coli BL-21 Gold (DE3), pET-22b(+)
T1 sequence (Q9L9D7 1-574): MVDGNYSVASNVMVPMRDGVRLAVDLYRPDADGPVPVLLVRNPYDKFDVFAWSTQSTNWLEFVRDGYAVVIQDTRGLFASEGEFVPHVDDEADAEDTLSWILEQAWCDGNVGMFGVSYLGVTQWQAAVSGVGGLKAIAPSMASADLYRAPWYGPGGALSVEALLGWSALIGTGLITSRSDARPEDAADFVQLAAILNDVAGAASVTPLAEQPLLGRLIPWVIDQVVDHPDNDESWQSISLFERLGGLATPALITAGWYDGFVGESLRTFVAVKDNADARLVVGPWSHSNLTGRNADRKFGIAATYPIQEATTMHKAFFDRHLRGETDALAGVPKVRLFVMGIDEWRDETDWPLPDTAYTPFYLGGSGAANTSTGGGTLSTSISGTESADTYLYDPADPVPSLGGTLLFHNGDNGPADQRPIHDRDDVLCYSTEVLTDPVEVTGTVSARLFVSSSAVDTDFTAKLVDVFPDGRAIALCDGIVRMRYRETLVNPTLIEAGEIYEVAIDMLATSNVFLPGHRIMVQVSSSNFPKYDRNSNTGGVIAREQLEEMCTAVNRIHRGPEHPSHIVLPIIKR
Method: Analysis of CocE action on cocaine cleavage is performed by utilizing the spectroscopic properties of cocaine, which maximally absorbs light at a 240 nm wavelength. CocE activity is measured by monitoring for a decrease in signal at A240, using various concentrations of cocaine, and determining the initial rate of the decrease. From these values the Vmax of the enzyme can be determined. By pre-incubating the enzyme at 37° C. for various times before monitoring for activity, the half life of CocE at 37° C. can be calculated.
The initial rates (of decay) were determined by following the change in the intrinsic absorbance of cocaine at 240 nm (6700 M^1 cm^1)(Xie et al., 1999) using a SpectraMax Plus 384 UV plate reader (Molecular Devices, Sunnyvale, Calif.) using SOFTmax Pro software (Version 3.1.2). The reaction was initiated by adding 100 μL of a 2× enzyme solution (100 mM phosphate buffer, pH 7.4 and 300 mM NaCl) to 100 μL of a 2× cocaine solution (50 μg/mL enzyme, 100 mM Phosphate Buffer, pH 7.4 and 300 mM NaCl). All assays were performed with 100 μM DTT unless indicated otherwise. Final cocaine concentrations were as follows: 125, 62.5, 31.25, 15.63, 7.81, 3.91, 1.95, and 0.977 μM. Vmax and Km values were calculated using Prism (GraphPad Software, San Diego). For stability measurements, wild type and mutant enzymes were diluted to 2× concentration and incubated at 37° C. for the times indicated. At the end of each time point, an aliquot was removed and kinetic behavior was observed as outlined above.
(§1) In vitro kinetic assays. […] Initial rates were then used to determine Michaelis-Menten parameters. To assess thermal stability, enzyme preparations were preincubated at 37° C. for various lengths of time, prior to measurement of residual activities (Table 1 and FIG. 23).

CocE [2] = molecular target: T1, CocE; test: Effect of DTT on decay of CocE activity at 37° C.; type: biochemical, Rhodococcus sp. MB 1; conditions: DTT 10 mM
Method: as §1

CocE mutant L169K = molecular target: T2, CocE mutant L169K (Rhodococcus sp., UniProt Q9L9D7, L169K); test: Circular dichroism melting of L169K in the presence of phenylboronic acid; type: physicochemical, Rhodococcus sp. MB 1
T2 construct: 6xHis (C); made in house; host or cells: E. coli BL-21 Gold (DE3), pET-22b(+)
T2 sequence (Q9L9D7 1-574 L169K): T1 sequence (Q9L9D7 1-574) with L169K
Method: CD analysis of another CocE mutant, L169K, established a ˜65° C. melting temperature alone, and ˜85° C. melting temperature in the presence of phenylboronic acid (FIG. 18), i.e. phenylboronic acid conferred an additional 20° C. melting to the already high original melting temperature for L169K.

CocE WT = molecular target: T3, CocE WT (Rhodococcus sp., UniProt Q9L9D7); test: Inhibition of CocE WT aggregate formation, non-denaturing gel, 1 hour at 37° C.; set-up: species or system Rhodococcus sp. MB 1; conditions: read-out: 50% stabilization concentration
T3 construct: 6xHis (C); made in house; host or cells: E. coli BL-21 Gold (DE3), pET-22b(+)
T3 sequence (Q9L9D7 1-574): T1 sequence (Q9L9D7 1-574)
Source text: To further study CocE stabilization with small molecules, other inhibitors of the CocE cleavage reaction were considered.

WT CocE = molecular target: T4, WT CocE (Rhodococcus sp., UniProt Q9L9D7); conditions: for melting temperature of WT CocE in presence of compound: excess benzoic acid, 5× molarity phenylboronic acid, 6031818
T4 sequence (Q9L9D7 1-574): T1 sequence (Q9L9D7 1-574)
Method: Further characterization of the stability of wild type (WT) CocE and thermostable mutants was performed through circular dichroism, which detects small changes in protein conformation and structure. Analysis by repeated CD measurements at increasing temperatures allows analysis of the thermodynamics and melting temperature (TM) of the protein, so long as the melting is reversible (i.e. the protein resumes it's original conformation upon cooling). […] However CD is still of value in determining the temperature to unfolding.

CocE [3] = molecular target: T1, CocE; type: biochemical, Rhodococcus sp. MB 1; remark: listed apart in the source
Method: CocE is also able to cleave another substrate, 4-nitrophenyl acetate (FIG. 3). Cleavage is monitored by detection of the appearance of the 4-nitrophenol reaction product, which absorbs at 400 nm.
Further spectrophotometric analysis of cocaine stabilization was performed, by analyzing the ability of CocE to cleave 4-nitrophenyl acetate, after preincubation at 37° C. for various times, in the presence of various concentrations of cocaine. […] However, preincubation of CocE at the higher concentrations for various times at 37° C. indicated the enzyme was stabilized enough to be able to cleave the 4-nitrophenyl substrate (FIG. 5).

CocE [4] = molecular target: T1, CocE; test: Screen for stabilization of CocE: 1 hour at 37° C., then 4-nitrophenyl acetate cleavage; type: biochemical, Rhodococcus sp. MB 1; conditions: forty compounds tested
Method: However all of these small molecules inhibited enzyme activity to certain degrees. It was evaluated whether there might exist a small molecule that could prevent CocE aggregation, without inhibiting enzyme activity. Such a molecule could be used as a stabilizer in vitro, e.g., during enzyme preparation, and in vivo. An assay was designed to screen a library of 20,000 small molecules for stabilization of CocE. In that assay, the enzyme is mixed with the compounds in a 96-well plate format, and then incubated at 37° C. for one hour. […] After 37° C. incubation, the enzyme/compound mixtures are tested for the ability to cleave 4-nitrophenyl acetate (FIG. 8). Only compounds stabilized would be able to cleave after this incubation period.
Forty compounds were first tested. The compounds were assayed in duplicate with appropriate controls. A duplicate plate (without enzyme) was performed as a negative control, to check for compounds able to cause an increase in 400 nm absorbance in the absence of CocE. […] Some were able to do this in the absence of CocE. These were discarded as false positives.
FIG. 9 is a plot of the initial rate of 4-nitrophenyl acetate cleavage for all compounds, after the background “no enzyme” cleavage was subtracted. […]

Row | SMILES | Ki (CocE [1]; cocaine hydrolysis, mixed competitive and non-competitive) | IC50 (CocE [1]; wt-CocE) | effect on decay / τinact of wt-CocE (CocE [2]) | additional melting conferred to L169K (CocE mutant L169K) | melting temperature of L169K in presence of compound (CocE mutant L169K) | EC50 (CocE WT) | melting temperature higher than the T172R mutant (WT CocE; WT CocE with compound) | melting temperature of WT CocE in presence of compound (WT CocE) | inhibition of cocaine cleavage (CocE [1]) | inhibition of 4-nitrophenyl acetate cleavage (CocE [3]) | inhibition of 4-nitrophenyl acetate cleavage (CocE [3]; cocaine: 62.5 and 125 μM, benzoic acid: higher concentrations) | effectiveness in stabilization screen (CocE [4])
1 | O[C@@H](CS)[C@@H](O)CS [DTT] | ~380 µM | ~390 µM | shortens; also recorded: accelerate the decay |  |  |  |  |  |  |  |  | 
2 | OB(O)c1ccccc1 [Phenylboronic acid, phenylboronic acid] |  |  |  | 20 °C | ~85 °C | ~0.2 µM | more than 30 degrees | 73 °C |  |  |  | 
3 | CCOc1ccccc1N(CC(=O)N1CCCCC1)S(=O)(=O)c1ccccc1 [compound 6031818] |  |  |  |  |  |  |  | ~42 °C | does not inhibit | 16 µM | weak inhibitor | most effective
